Results as given in ChEMBL document CHEMBL3259645, “Design and synthesis of spirocyclic compounds as HCV replication inhibitors by targeting viral NS4B protein” (Bioorg Med Chem Lett, 2014).
Values after ≈ are worked out from the molar mass of the structure shown.

Tests used:
[1] = Cytotoxicity against human HuH7 cells infected with Hepatitis C virus genotype 1b; format: cell-based, Huh-7
Hepatitis C virus [2] = experiment: Antiviral activity against Hepatitis C virus genotype 1a infected in human HuH7 cells assessed as inhibition of replicon replication after 48 hrs by luciferase reporter gene assay; format: functional, cell-based, Hepacivirus hominis; conditions: subtype 1a, Huh-7, 48 h
Hepatitis C virus [3] = experiment: Antiviral activity against Hepatitis C virus genotype 1b infected in human HuH7 cells assessed as inhibition of replicon replication after 48 hrs by luciferase reporter gene assay; format: functional, cell-based, Hepacivirus hominis; conditions: Huh-7, 48 h
Hepatitis C virus [4] = experiment: Ratio of EC50 for Hepatitis C virus genotype 1b harboring NS4B V105M mutant infected in human HuH7 cells to EC50 for wild type Hepatitis C virus genotype 1b infected in human HuH7 cells; format: functional, Hepacivirus hominis, Huh-7
Hepatitis C virus [5] = experiment: Antiviral activity against Hepatitis C virus genotype 1b harboring NS4B H94N mutant infected in human HuH7 cells assessed as inhibition of replicon replication after 48 hrs by luciferase reporter gene assay; format: functional, cell-based, Hepacivirus hominis; conditions: Huh-7, 48 h
Hepatitis C virus [6] = experiment: Antiviral activity against Hepatitis C virus genotype 2a; format: functional, Hepacivirus hominis
[7] = Half life in human hepatocytes; format: ADME, cell-based, Hepatocyte
[8] = Volume of distribution at steady state in rat at 1 mg/kg, iv and 5 mg/kg, po; format: ADME, organism-based; conditions: in vivo, read-out: Vdss
[9] = AUC (0 to 24 hrs) in rat at 5 mg/kg, po; format: ADME, organism-based; design: time < 24 hr, dose 5 mg/kg, route oral; conditions: plasma
Hepatitis C virus [10] = experiment: Ratio of EC50 for Hepatitis C virus genotype 1b harboring NS4B H94N mutant infected in human HuH7 cells to EC50 for wild type Hepatitis C virus genotype 1b infected in human HuH7 cells; format: functional, Hepacivirus hominis, Huh-7
[11] = Half life in rat hepatocytes; format: ADME, cell-based, Hepatocyte
[12] = Displacement of biotinylated anti-His antibody from C-terminal 6X His-tagged Hepatitis C virus genotype 1b NS4B expressed in baculovirus-infected Sf9 cells by microplate assay; design: species or system Hepatitis C virus subtype 1b
[13] = Cmax in rat at 5 mg/kg, po; format: ADME, organism-based; design: dose 5 mg/kg, route oral; conditions: in vivo
[14] = Kinetic solubility of the compound at pH 7.4; format: physicochemical; conditions: buffer, read-out: Kinetic_solubility
Hepatitis C virus [15] = experiment: Antiviral activity against Hepatitis C virus genotype 1b harboring NS4B V105M mutant infected in human HuH7 cells assessed as inhibition of replicon replication after 48 hrs by luciferase reporter gene assay; format: functional, cell-based, Hepacivirus hominis; conditions: Huh-7, 48 h
[16] = Clearance in rat at 1 mg/kg, iv; format: ADME, organism-based; design: dose 1 mg/kg, route intravenous; conditions: in vivo
[17] = Oral bioavailability in rat at 5 mg/kg; format: ADME, organism-based; conditions: in vivo

Row | Compound | CC50 [1] | EC50 (Hepatitis C virus [2]) | EC50 (Hepatitis C virus [3]) | further results
1 | O=C(c1nn2c(C(F)(F)F)cc(C3CC3)cc2c1Cl)N1CCC2(OCC3(CC3)CO2)C(O)C1 (stereo not drawn) | > 50 µM | 0.0043 µM | 0.0022 µM | 
2 | O=C(c1nc2c(C(F)(F)F)cc(Br)cn2c1Cl)N1CCC(N2CCOC2=O)CC1 |  | 0.0314 µM | 0.0455 µM | 
3 | O=C(c1nn2c(C(F)(F)F)cc(C3CC3)cc2c1Cl)N1CCCC2(C1)OCCCO2 | > 50 µM | > 0.5 µM | > 0.5 µM | 
4 | O=C(c1nn2c(C(F)(F)F)cc(C3CC3)cc2c1Cl)N1CCC2(CC1)OCCO2 | > 50 µM | 0.299 µM | 0.161 µM | 
5 | O=C(c1nn2c(C(F)(F)F)cc(C3CC3)cc2c1Cl)N1CCC2(CC1)OCCCO2 | > 50 µM | 0.0338 µM | 0.0061 µM | 
6 | O=C(c1nn2c(C(F)(F)F)cc(C3CC3)cc2c1Cl)N1CCC2(CC1)OCCCCO2 | > 25 µM | 0.0463 µM | 0.008 µM | 
7 | CC1COC2(CCN(C(=O)c3nn4c(C(F)(F)F)cc(C5CC5)cc4c3Cl)CC2)OC1 | > 50 µM | 0.0074 µM | 0.0012 µM | 
8 | CC1(C)COC2(CCN(C(=O)c3nn4c(C(F)(F)F)cc(C5CC5)cc4c3Cl)CC2)OC1 | > 25 µM | 0.0238 µM | 0.0098 µM | 
9 | O=C(c1nn2c(C(F)(F)F)cc(C3CC3)cc2c1Cl)N1CCC2(CC1)OCC(c1ccccc1)CO2 | > 50 µM | 0.0422 µM | 0.209 µM | 
10 | O=C(c1nn2c(C(F)(F)F)cc(C3CC3)cc2c1Cl)N1CCC2(CC1)OCC(O)CO2 | > 50 µM | 0.0195 µM | 0.0138 µM | 
11 | O=C1COC2(CCN(C(=O)c3nn4c(C(F)(F)F)cc(C5CC5)cc4c3Cl)CC2)OC1 | > 50 µM | 0.018 µM | 0.0191 µM | 
12 | O=C(c1nn2c(C(F)(F)F)cc(C3CC3)cc2c1Cl)N1CCC2(CC1)OCC1(CC1)CO2 | > 50 µM | 0.009 µM | 0.0041 µM | Ratio EC50 (Hepatitis C virus [4]): 16.5; EC50 (Hepatitis C virus [5]): 0.0243 µM; EC50 (Hepatitis C virus [6]): 6.84 µM; half-life [7]: 30 min; Vd [8]: 4.5 L/kg; AUC(0-t) at 24 h [9]: 693 ng·h/mL; Ratio EC50 (Hepatitis C virus [10]): 5.9; half-life [11]: < 15 min; IC50 [12]: 0.032 µM; Cmax [13]: 254 ng/mL; solubility kinetic [14]: 105 µg/mL (≈ 223 µM); EC50 (Hepatitis C virus [15]): 0.0676 µM; clearance [16]: 37.8 mL/min/kg; bioavailability [17]: 29%
13 | O=C(c1nn2c(C(F)(F)F)cc(C3CC3)cc2c1Cl)N1CCC2(CC1)OCC1(CCC1)CO2 | > 50 µM | 0.0051 µM | 0.0076 µM | 
14 | O=C(c1nn2c(C(F)(F)F)cc(C3CC3)cc2c1Cl)N1CCC2(CC1)OCC1(CO2)CC(O)C1 | > 50 µM | 0.0022 µM | 0.0142 µM | 
15 | O=C(c1nn2c(C(F)(F)F)cc(C3CC3)cc2c1Cl)N1CCC2(CC1)OCC1(COC1)CO2 | > 50 µM | 0.0144 µM | 0.0032 µM | 
